According to patent publication US12589101B2, “Cyclodextrin protein drug conjugates” (Regeneron Pharmaceuticals, Inc., priority 2017, dated 2026):
Converted amounts (≈) assume the structure as drawn. Read-outs that look alike come from different tables or passages of the source. Numbered stars: 1 amine (or outer) side, 2 acyl side, 3 side chain; on linkers, the order of the positions; unused ones are H or OH. Square brackets hold non-standard residues; d marks the D form. Peptide text beside a SMILES is read from it. * marks the point of attachment. Dolaproine = CO[C@@H]([C@@H]1CCCN1)[C@@H](C)C(=O)O; Dil = CC[C@H](C)[C@H](NC)[C@@H](CC(=O)O)OC; PABC = O=C(OCc1ccc(N[*:1])cc1)[*:2]; DBCO = C1#Cc2ccccc2N(*)Cc2ccccc21; X1 = C[C@@H](N*)[C@@H](O)c1ccccc1; Cit = NC(=O)NCCC[C@H](N)C(=O)O; PEG4 = NCCOCCOCCOCCOCCC(=O)O; Suc = O=C(CCC(=O)[*:2])[*:1]; NMeV = CN[C@H](C(=O)O)C(C)C

Key:
Cathepsin B = Cathepsin B (Homo sapiens, UniProt P07858); assay: Cathepsin B cleavage rate of linker-payloads (Example 66); type: biochemical; details: for capB / CapB (%): Cathepsin B cleavage rate; for capB: Table 8A; for CapB (%): pH 5.0, 37° C.
Experimental: Step 1: Preparation of Cathepsin B buffer: 0.1 M NaOAc/0.01M DTT (pH5.0) Dissolve 8.3 g/L NaOAc, 1.54 g/L DTT in deionized water. Adjust pH to 5.0 with HCl/sodium hydroxide.
Step 2: Test Cleavage Rate
• 1. Prepare 25 μM of testing sample: To a 2-mL-tube was added 0.5 mg of testing sample, followed by the addition of 0.2 mL of DMSO. The solution was added dropwise into 0.8 mL of 0.1 M NaOAc/0.01 M DTT buffer. The obtained mixtures were sonicated for 5 minutes to obtain clear and colorless solutions. The pH value of the solution was around 5 according to pH test strip. • 2. Preheat assay buffer: 0.1 M NaOAc/0.01 M DTT (pH 5.0) • 3. Spiking solutions for test compounds: 25 μM Spiking solutions for test compounds: Add 2 μL of 5 mM stock solution into 398 μL of 0.1 M NaOAc/0.01 M DTT buffer (pH 5.0). • 4. Prepare 0.47 μg/μL Cathepsin B in 50 mM NaOAc/1 mM EDTA (pH 5.0). Put on ice. • 5. Without CA074 samples: Add 4 μL of 0.47 μg/μL Cathepsin B into 196 μL of 25 μM Spiking solutions (from step 2), incubate the tubes at 37° C. • 6. With CA074 samples: Add 4 μL of 0.47 μg/μL Cathepsin B with 4 μL of 10 mM Inhibitor (CA074) into 196 μL of 25 μM Spiking solutions (from step 2), incubate the tubes. • 7. After quenching, shake the plate and centrifuge them at 14000 rpm. • 8. Transfer 50 μL of the supernatant from each well into a 96-well sample plate containing 50 μL of ultra pure water (Millipore, ZMQS50F01) for LC/MS analysis. Step 3: Test reference compounds: • 9. Preheat assay buffer: 100 mM Na/K phosphate, pH 6.0, with 1.33 mM EDTA and 2 mM DTT. • 10. Prepare 0.024 μg/μL Cathepsin B: Add 1 μL of 0.47 μg/μL Cathepsin B stock into 19 μL of assay buffer (from step 11). • 11. Add 2 μL of 0.024 μg/μL Cathepsin B (from step 12) to a opaque 96-well plate. • 12. Add 96 μL of assay buffer to each sample. • 13. Add 2 μL of the 10 mM substrate Z-RR-MNA (200 μM final concentration). • 14. For negative control (With inhibitor), add 2 μL of 10 mM Inhibitor (CA074): Immediately read the samples in a kinetic mode at excitation of 340 nm/emission of 425 nm (Read the plate every 30 Second for 3 min). Step 4: Stability of Cathepsin B in incubation samples: • 15. Take 5 μL of incubation samples into 93 μL of assay buffer (from step 11), and then add 2 μL of 10 mM substrate (Z-RR-MNA). • 16. Incubate the samples at 37° C. for 2 min. • 17. Read the samples at excitation of 340 nm/emission of 425 nm.

[1] = Solubility of linker-payloads (LC-MS standard curve, saturated solution); type: physicochemical; details: water; for solubility at 10 min: thermodynamic from solid
Experimental: The following test assays the solubility of the linker-payloads with a cyclodextrin moiety and the linker-payloads without a cyclodextrin moiety.
The test compounds were dissolved in DMSO to build a standard curve using LC-MS method A or B. The test sample was dissolved in water and sonicated for 10 minutes, and then centrifuged. The upper clear solution was analyzed using the same method A or B and the solubility was calculated based on its peak area.
Detailed test procedures were as follows: • 1. […] 0.05 mg of compound was suspended in water (1 mL) and sonicated for 10 minutes. After centrifugation, the clear solution above was collected to provide the saturated sample solution. • 3. All the standard solutions A, B, C, D, E and sample solution were analyzed by LCMS (using the same method and same injection volume) to obtain the peak areas. • 4. Calculate the standard curve according to the data of A-D (X=concentration, Y=peak areas). • 5. Calculate to obtain the concentration of saturated sample solution according to the functions obtained above.

[2] = aqueous, read-out: Aq. Solubility

| Structure (SMILES) | CapB (%) (Cathepsin B) | solubility at 10 min [1, 2] [µg/mL] | also measured |
| --- | --- | --- | --- |
| CC(C)[C@H](NC(=O)[C@@H](CCCCNC(=O)COC1CCCCCc2c1nnn2CC1OC2OC3C(CO)OC(OC4C(CO)OC(OC5C(CO)OC(OC6C(CO)OC(OC7C(CO)OC(OC8C(CO)OC(OC9C(CO)OC(OC1C(O)C2O)C(O)C9O)C(O)C8O)C(O)C7O)C(O)C6O)C(O)C5O)C(O)C4O)C(O)C3O)NC(=O)CCOCCOCCOCCOCCNC(=O)CCC(=O)N1Cc2ccccc2C#Cc2ccccc21)C(=O)N[C@@H](C)C(=O)Nc1ccc2c(c1)[C@@]1(C)CCC[C@](C)(C(=O)NC(=O)[C@@]3(C)CCC[C@]4(C)c5cc(O)ccc5CC[C@@H]34)[C@@H]1CC2 (stereo partly drawn) [Ex57, DIBAC-suc-PEG4-D-Lys(COT-CD)-vcPAB-1d] |  |  | capB (Cathepsin B): 8.3% |
| CC[C@H](C)[C@@H]([C@@H](CC(=O)N1CCC[C@H]1[C@H](OC)[C@@H](C)C(=O)N[C@H](C)[C@@H](O)c1ccccc1)OC)N(C)C(=O)[C@@H](NC(=O)[C@H](C(C)C)N(C)C(=O)OCc1ccc(NC(=O)[C@H](CCCNC(N)=O)NC(=O)[C@@H](NC(=O)CCOCCOCCOCCOCCNC(=O)CCC(=O)N2Cc3ccccc3C#Cc3ccccc32)C(C)C)cc1)C(C)C [Ex36] ({DBCO-Suc-PEG4}-V[Cit][PABC][NMeV]V[Dil][Dolaproine]-X1) | % % (60< % % ≤70 CapB (%)) | < 100 | solubility at 10 min ([1]; read-out: Solubility): < 100 µg/mL |
| CC(C)[C@H](NC(=O)[C@@H](CCCCNC(=O)CCOCCOCCOCCOCCNC(=O)COC1CCCCCc2nnn(CC3OC4OC5C(CO)OC(OC6C(CO)OC(OC7C(CO)OC(OC8C(CO)OC(OC9C(CO)OC(OC3C(O)C4O)C(O)C9O)C(O)C8O)C(O)C7O)C(O)C6O)C(O)C5O)c21)NC(=O)CCOCCOCCOCCOCCNC(=O)CCC(=O)N1Cc2ccccc2C#Cc2ccccc21)C(=O)N[C@@H](C)C(=O)Nc1ccc2c(c1)[C@@]1(C)CCC[C@](C)(C(=O)NC(=O)[C@@]3(C)CCC[C@]4(C)c5cc(O)ccc5CC[C@@H]34)[C@@H]1CC2 (stereo partly drawn) [Ex53, DIBAC-suc-PEG4-D-Lys(PEG4-COT-CD)-Val-Ala-1d] | % (50< % ≤60 CapB (%)) |  | solubility at 10 min ([1]; Aq. Solubility (mg/mL)): 330 µg/mL (≈ 119 µM); solubility at 10 min ([1]; Solubility): 180 µg/mL (≈ 65 µM) |
| CC[C@H](C)[C@@H]([C@@H](CC(=O)N1CCC[C@H]1[C@H](OC)[C@@H](C)C(=O)N[C@H](C)[C@@H](O)c1ccccc1)OC)N(C)C(=O)[C@@H](NC(=O)[C@H](C(C)C)N(C)C(=O)OCc1ccc(NC(=O)[C@H](CCCNC(N)=O)NC(=O)[C@@H](NC(=O)[C@@H](CCCCNC(=O)CCOCCOCCOCCOCCNC(=O)COC2CCCCCc3c2nnn3CC2OC3OC4C(CO)OC(OC5C(CO)OC(OC6C(CO)OC(OC7C(CO)OC(OC8C(CO)OC(OC2C(O)C3O)C(O)C8O)C(O)C7O)C(O)C6O)C(O)C5O)C(O)C4O)NC(=O)CCOCCOCCOCCOCCNC(=O)CCC(=O)N2Cc3ccccc3C#Cc3ccccc32)C(C)C)cc1)C(C)C (some centres unmarked) [Ex43] | % (50< % ≤60 CapB (%)) |  |  |
| CCC[C@@H]1O[C@@H]2C[C@H]3[C@@H]4CCC5=CC(=O)C=C[C@]5(C)[C@H]4[C@@H](O)C[C@]3(C)[C@]2(C(=O)COc2ccc(NC(=O)[C@H](C)NC(=O)[C@@H](NC(=O)[C@@H](CCCCNC(=O)COC3CCCCCc4c3nnn4CC3OC4OC5C(CO)OC(OC6C(CO)OC(OC7C(CO)OC(OC8C(CO)OC(OC9C(CO)OC(OC3C(O)C4O)C(O)C9O)C(O)C8O)C(O)C7O)C(O)C6O)C(O)C5O)NC(=O)CCOCCOCCOCCOCCNC(=O)CCC(=O)N3Cc4ccccc4C#Cc4ccccc43)C(C)C)cc2)O1 (some centres unmarked) [Ex47] | % (% ≤50 CapB (%)) | < 100 | Cathepsin B cleavage rate (Cathepsin B): 14%; aqueous solubility (in words) [1]: below detectable levels |
| CC[C@H](C)[C@@H]([C@@H](CC(=O)N1CCC[C@H]1[C@H](OC)[C@@H](C)C(=O)N[C@H](C)[C@@H](O)c1ccccc1)OC)N(C)C(=O)[C@@H](NC(=O)[C@H](C(C)C)N(C)C(=O)OCc1ccc(NC(=O)[C@H](CCCNC(N)=O)NC(=O)[C@@H](NC(=O)[C@@H](CCCCNC(=O)COC2CCCCCc3c2nnn3CC2OC3OC4C(CO)OC(OC5C(CO)OC(OC6C(CO)OC(OC7C(CO)OC(OC8C(CO)OC(OC2C(O)C3O)C(O)C8O)C(O)C7O)C(O)C6O)C(O)C5O)C(O)C4O)NC(=O)CCOCCOCCOCCOCCNC(=O)CCC(=O)N2Cc3ccccc3C#Cc3ccccc32)C(C)C)cc1)C(C)C (some centres unmarked) [Ex41] | % % (70< % % ≤80 CapB (%)) | 140 (≈ 47.5 µM) | solubility at 10 min ([1]; read-out: Solubility): 250 µg/mL (≈ 84.8 µM) |
| CCCC1O[C@@H]2C[C@H]3[C@@H]4C[C@H](F)C5=CC(=O)C=C[C@]5(C)[C@@]4(F)[C@@H](O)C[C@]3(C)[C@]2(C(=O)CNC(=O)OCc2ccc(NC(=O)[C@H](CCCNC(N)=O)NC(=O)[C@@H](NC(=O)[C@@H](CCCCNC(=O)COC3CCCCCc4c3nnn4CC3OC4OC5C(CO)OC(OC6C(CO)OC(OC7C(CO)OC(OC8C(CO)OC(OC9C(CO)OC(OC3C(O)C4O)C(O)C9O)C(O)C8O)C(O)C7O)C(O)C6O)C(O)C5O)NC(=O)CCOCCOCCOCCOCCNC(=O)OC[C@@H]3[C@@H]4CCC#CCC[C@@H]43)C(C)C)cc2)O1 (some centres unmarked) [Ex60, BCN-PEG4-dLys(COT-CD)-vcPAB-1h] | % (% ≤50 CapB (%)) |  |  |
| CCCC1O[C@@H]2C[C@H]3[C@@H]4C[C@H](F)C5=CC(=O)C=C[C@]5(C)[C@@]4(F)[C@@H](O)C[C@]3(C)[C@]2(C(=O)COc2ccc(NC(=O)[C@H](C)NC(=O)[C@@H](NC(=O)[C@@H](CCCCNC(=O)COC3CCCCCc4c3nnn4CC3OC4OC5C(CO)OC(OC6C(CO)OC(OC7C(CO)OC(OC8C(CO)OC(OC9C(CO)OC(OC3C(O)C4O)C(O)C9O)C(O)C8O)C(O)C7O)C(O)C6O)C(O)C5O)NC(=O)CCOCCOCCOCCOCCNC(=O)CCC(=O)N3Cc4ccccc4C#Cc4ccccc43)C(C)C)cc2)O1 (stereo partly drawn) [Ex63, DIBAC-suc-PEG4-dLys(COT-CD)-Val-Ala-1i] | % (% ≤50 CapB (%)) |  |  |
| CC[C@H](C)[C@@H]([C@@H](CC(=O)N1CCC[C@H]1[C@H](OC)[C@@H](C)C(=O)N[C@H](C)[C@@H](O)c1ccccc1)OC)N(C)C(=O)[C@@H](NC(=O)[C@H](C(C)C)N(C)C(=O)OCc1ccc(NC(=O)[C@H](CCCNC(N)=O)NC(=O)[C@@H](NC(=O)[C@@H](CCCCNC(=O)CCOCCOCCOCCOCCNC(=O)COC2CCCCCc3c2nnn3CC2OC3OC4C(CO)OC(OC5C(CO)OC(OC6C(CO)OC(OC7C(CO)OC(OC8C(CO)OC(OC2C(O)C3O)C(O)C8O)C(O)C7O)C(O)C6O)C(O)C5O)C(O)C4O)NC(=O)CCOCCOCCOCCOCCNC(=O)OC[C@@H]2[C@@H]3CCC#CCC[C@@H]32)C(C)C)cc1)C(C)C (some centres unmarked) [Ex44] | % (50< % ≤60 CapB (%)) |  |  |
| CCCC1O[C@@H]2C[C@H]3[C@@H]4C[C@H](F)C5=CC(=O)C=C[C@]5(C)[C@@]4(F)[C@@H](O)C[C@]3(C)[C@]2(C(=O)COc2ccc(NC(=O)OCc3ccc(NC(=O)[C@H](CCCNC(N)=O)NC(=O)[C@@H](NC(=O)[C@@H](CCCCNC(=O)COC4CCCCCc5c4nnn5CC4OC5OC6C(CO)OC(OC7C(CO)OC(OC8C(CO)OC(OC9C(CO)OC(OC%10C(CO)OC(OC4C(O)C5O)C(O)C%10O)C(O)C9O)C(O)C8O)C(O)C7O)C(O)C6O)NC(=O)CCOCCOCCOCCOCCNC(=O)CCC(=O)N4Cc5ccccc5C#Cc5ccccc54)C(C)C)cc3)cc2)O1 (some centres unmarked) [Ex62, DIBAC-suc-PEG4-dLys(COT-CD)-vcPAB-1i] | % (% ≤50 CapB (%)) |  | capB (Cathepsin B): 12.8% |
